These are literature values, as cited in patent US8333981B2, “Antifungal treatment of nails” (Humco Holding Group, Inc., priority 2007, dated 2012).

For data set [1], the system named is onychomycosis of fingernails and toenails due to Trichophyton rubrum. Conditions: after several months of use.
Data set [2] deals with C. albicans (monilia), C. neoformans, B. dermatitidis, A. israelii, H. capsulatum, C. immitis, M. furfur (tinea versicolor) and bacteria.
Data set [3] deals with chronic infections of the nails. To be noted: human, in vivo.
Data set [4] deals with fungi known to cause onychomycosis.
The conditions of data set [5]: in vitro.
The conditions of data set [6]: not told.
The conditions of data set [7]: not told. This is another data set of the same source.
The conditions of data set [8]: human, in vivo.
For data set [9] the following is noted: in vivo, po.

Like-named read-outs stand apart in the source and are kept apart here.

As to `CC12CCC(CC1=O)C2(C)C` (centres unmarked) [Camphor], the anti-fungal activity result in the data set on toenail fungus was “little or no detectable anti-fungal activity”.
As to `Cc1cc(C2CCCCC2)n(O)c(=O)c1` [Ciclopirox, ciclopirox], in data set [1], the cure rate is on record as 14%.
For `Clc1ccccc1C(c1ccccc1)(c1ccccc1)n1ccnc1` [Clotrimazole], the “dermatophyte isolates being sensitive” value in the data set on dermatophyte isolates is on record as 30.55%.
Consider `COC1=CC(=O)C[C@@H](C)[C@]12Oc1c(Cl)c(OC)cc(OC)c1C2=O` [Griseofulvin, griseofulvin], for which, in [2], the “activity against listed organisms” value is “inactive”. In data set [3], the cure rates result is reported as “poor cure rates”.
With `CC1CCC(C(C)C)C(O)C1` (centres unmarked) [Menthol], the “effect on fungi causing onychomycosis / toenail infection” value in data set [4] is “specifically inhibits the growth”.
On to `O=C([O-])CS.[Na+]` [Sodium Thioglycolate], for which the “increase in flux compared to the control” value in data set [5] is recorded as 3.8 fold.
For `Cc1ccc(C(C)C)c(O)c1` [Thymol], in data set [4], the “effect on fungi causing onychomycosis / toenail infection” value was “effective”.
As for `Cc1cccc(N(C)C(=S)Oc2ccc3ccccc3c2)c1` [Tolnaftate], the “dermatophyte isolates being sensitive” value with dermatophyte isolates was 47.22%.
For `NC(N)=O` [Urea], the “drug permeability compared to control” value in data set [6] is on record as “significant increase”.
For the compound `Clc1ccc(COC(Cn2ccnc2)c2ccc(Cl)cc2Cl)c(Cl)c1` (centres unmarked) [Water-soluble miconazole, miconazole], the “dermatophyte isolates being sensitive” value in the data set on dermatophyte isolates is listed as 75%.
Consider `CCO` [ethanol], for which the average permeability coefficient in [7] was 5.8+/−3.1×10(−3) cm hr-1.
On to `OC(Cn1cncn1)(Cn1cncn1)c1ccc(F)cc1F` [fluconazole], for which the “patients who experienced adverse events” value in [8] was “Sixteen”.
Consider `CCC(C)n1ncn(-c2ccc(N3CCN(c4ccc(OCC5COC(Cn6cncn6)(c6ccc(Cl)cc6Cl)O5)cc4)CC3)cc2)c1=O` (centres unmarked) [itraconazole], for which the “total observed incidence of adverse events possibly or directly drug-related” value in [9] was 18.2%.
`CCCCCCCCO` [n-octanol]: the permeability coefficient is 0.00027 cm/h.
Consider `O` [water], for which the permeability coefficient (not told) is 0.0165 cm/h. The average permeability coefficient in data set [7] is recorded as 16.5+/−5.9×10(−3) cm hr-1.
